Reference: ChEMBL document CHEMBL1201862, “PubChem BioAssay data set” (2004)
One block for each molecule: values may come before it. The source made the active and inactive calls.

Tests used:
Caspase-3 = target: T1, Caspase-3 (Homo sapiens, UniProt P42574); type: functional;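 also: Dose-response selectivity test against caspase-3 for candidate inhibitors of sentrin-specific proteases (SENPs)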
T1 sequence (P42574 whole entry): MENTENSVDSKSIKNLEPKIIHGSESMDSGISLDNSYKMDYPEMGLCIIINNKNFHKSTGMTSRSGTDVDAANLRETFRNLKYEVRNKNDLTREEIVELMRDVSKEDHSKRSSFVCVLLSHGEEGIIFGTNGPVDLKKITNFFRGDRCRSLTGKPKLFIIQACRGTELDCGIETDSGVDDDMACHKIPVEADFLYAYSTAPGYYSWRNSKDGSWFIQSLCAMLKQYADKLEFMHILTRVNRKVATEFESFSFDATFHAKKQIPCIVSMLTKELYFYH

[1] = target: T2, Sentrin-specific protease 7 (Homo sapiens, UniProt Q9BQF6); type: functional;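 also: Luminescence-based dose-response confirmation of ultra-high-throughput screening hits, measuring inhibition of SENP7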
T2 sequence (Q9BQF6 whole entry): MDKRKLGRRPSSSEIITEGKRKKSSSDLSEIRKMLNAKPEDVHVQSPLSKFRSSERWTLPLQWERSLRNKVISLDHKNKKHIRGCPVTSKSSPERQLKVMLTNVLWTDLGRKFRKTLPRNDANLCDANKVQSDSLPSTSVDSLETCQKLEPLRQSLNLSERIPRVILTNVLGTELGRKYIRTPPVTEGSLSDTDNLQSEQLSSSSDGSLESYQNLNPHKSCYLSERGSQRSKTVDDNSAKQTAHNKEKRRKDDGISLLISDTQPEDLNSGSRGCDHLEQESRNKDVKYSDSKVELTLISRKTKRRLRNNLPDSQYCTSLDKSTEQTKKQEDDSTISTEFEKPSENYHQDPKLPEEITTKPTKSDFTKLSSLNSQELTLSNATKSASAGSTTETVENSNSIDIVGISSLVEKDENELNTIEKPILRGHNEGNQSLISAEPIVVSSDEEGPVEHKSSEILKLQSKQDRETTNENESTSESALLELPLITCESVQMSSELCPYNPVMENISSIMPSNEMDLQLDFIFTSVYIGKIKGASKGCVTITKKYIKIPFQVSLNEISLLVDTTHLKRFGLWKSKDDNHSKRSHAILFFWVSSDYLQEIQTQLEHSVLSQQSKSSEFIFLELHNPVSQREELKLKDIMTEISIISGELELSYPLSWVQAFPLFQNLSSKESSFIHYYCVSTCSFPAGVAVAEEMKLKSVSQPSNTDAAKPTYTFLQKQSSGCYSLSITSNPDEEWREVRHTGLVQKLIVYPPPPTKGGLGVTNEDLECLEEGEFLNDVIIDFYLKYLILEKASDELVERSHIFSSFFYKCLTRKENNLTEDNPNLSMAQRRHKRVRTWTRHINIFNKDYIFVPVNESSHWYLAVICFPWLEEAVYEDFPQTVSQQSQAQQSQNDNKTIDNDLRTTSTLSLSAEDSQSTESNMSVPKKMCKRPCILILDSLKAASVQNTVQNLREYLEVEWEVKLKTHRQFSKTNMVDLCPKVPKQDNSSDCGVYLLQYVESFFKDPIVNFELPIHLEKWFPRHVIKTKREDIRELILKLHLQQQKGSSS

[2] = target: T3, Sentrin-specific protease 6 (Homo sapiens, UniProt Q9GZR1); type: functional;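 also: Luminescence-based dose-response confirmatory assay of SENP6 inhibition, following up an ultra-high-throughput screen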
T3 sequence (Q9GZR1 whole entry): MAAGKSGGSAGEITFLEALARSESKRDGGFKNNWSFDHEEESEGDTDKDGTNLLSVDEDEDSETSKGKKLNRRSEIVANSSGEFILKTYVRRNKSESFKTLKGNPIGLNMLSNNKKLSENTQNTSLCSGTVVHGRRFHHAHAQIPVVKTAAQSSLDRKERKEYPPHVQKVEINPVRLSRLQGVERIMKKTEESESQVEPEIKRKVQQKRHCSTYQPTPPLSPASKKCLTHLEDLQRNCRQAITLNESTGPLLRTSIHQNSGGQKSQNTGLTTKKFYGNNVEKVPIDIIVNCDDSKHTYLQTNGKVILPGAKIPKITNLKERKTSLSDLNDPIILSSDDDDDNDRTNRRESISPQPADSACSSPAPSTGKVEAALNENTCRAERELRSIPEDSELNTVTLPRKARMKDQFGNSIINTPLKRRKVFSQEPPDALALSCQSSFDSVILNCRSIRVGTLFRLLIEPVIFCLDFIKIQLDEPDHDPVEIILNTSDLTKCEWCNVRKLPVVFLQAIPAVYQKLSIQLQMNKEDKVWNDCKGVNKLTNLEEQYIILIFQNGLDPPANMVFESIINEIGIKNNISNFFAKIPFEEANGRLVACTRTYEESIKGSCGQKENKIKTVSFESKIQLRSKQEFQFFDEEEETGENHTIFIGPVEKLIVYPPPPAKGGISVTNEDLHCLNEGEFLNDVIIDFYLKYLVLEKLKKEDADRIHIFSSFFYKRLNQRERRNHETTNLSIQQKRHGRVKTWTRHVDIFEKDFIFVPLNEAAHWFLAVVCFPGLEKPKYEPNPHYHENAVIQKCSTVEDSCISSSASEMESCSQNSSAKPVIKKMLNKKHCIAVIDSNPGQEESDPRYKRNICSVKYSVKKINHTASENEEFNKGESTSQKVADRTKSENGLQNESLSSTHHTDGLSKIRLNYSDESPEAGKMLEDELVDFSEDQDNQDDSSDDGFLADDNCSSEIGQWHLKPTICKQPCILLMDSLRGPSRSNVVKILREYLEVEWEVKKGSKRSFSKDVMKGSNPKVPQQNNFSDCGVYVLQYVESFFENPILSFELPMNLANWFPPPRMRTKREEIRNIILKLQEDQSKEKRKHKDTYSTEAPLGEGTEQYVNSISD

[3] = target: T4, Sentrin-specific protease 8 (Homo sapiens, UniProt Q96LD8); type: functional;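 also: luminescence read-out of SENP8 inhibition, dose-response confirmation following an ultra-high-throughput screen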
T4 sequence (Q96LD8 whole entry): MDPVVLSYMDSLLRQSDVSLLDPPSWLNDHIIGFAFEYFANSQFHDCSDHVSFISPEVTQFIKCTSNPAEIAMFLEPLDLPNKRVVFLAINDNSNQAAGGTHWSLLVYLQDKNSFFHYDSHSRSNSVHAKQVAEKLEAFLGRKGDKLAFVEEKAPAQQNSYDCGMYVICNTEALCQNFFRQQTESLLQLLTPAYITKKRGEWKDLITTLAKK

[4] = target: T5, Mitochondrial peptide methionine sulfoxide reductase (Bos taurus, UniProt P54149); assay: Absorbance-based biochemical high throughput dose response assay for activators of Methionine sulfoxide reductase A (MsrA).; type: functional
T5 sequence (P54149 whole entry): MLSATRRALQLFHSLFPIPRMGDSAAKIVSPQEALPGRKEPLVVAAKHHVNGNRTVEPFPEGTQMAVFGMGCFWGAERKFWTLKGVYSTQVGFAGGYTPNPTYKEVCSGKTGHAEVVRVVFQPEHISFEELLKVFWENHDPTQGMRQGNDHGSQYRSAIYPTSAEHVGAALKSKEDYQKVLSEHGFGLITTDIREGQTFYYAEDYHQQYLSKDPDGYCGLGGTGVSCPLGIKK

Caspase-6 = target: T6, Caspase-6 (Homo sapiens, UniProt P55212); assay: inhibition of CASP6 peptide cleavage – biochemical, VEID-R110 fluorescence, cherry-pick, dose response (AID 720632)
T6 sequence (P55212 whole entry): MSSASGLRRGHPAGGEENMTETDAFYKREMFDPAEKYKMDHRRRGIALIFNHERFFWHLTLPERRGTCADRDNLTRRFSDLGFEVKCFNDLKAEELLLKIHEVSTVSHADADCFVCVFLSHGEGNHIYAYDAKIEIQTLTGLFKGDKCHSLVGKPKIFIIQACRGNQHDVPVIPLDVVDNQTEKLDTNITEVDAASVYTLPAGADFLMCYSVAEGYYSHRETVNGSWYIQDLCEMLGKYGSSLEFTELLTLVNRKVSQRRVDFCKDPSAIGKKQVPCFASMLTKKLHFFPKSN

[5] = target: T7, Tyrosyl-DNA phosphodiesterase 2 (Homo sapiens, UniProt O95551); assay: potency against TDP2 phosphodiesterase activity – biochemical, epi absorbance, IC50, dose response (AID 743297)
T7 sequence (O95551 whole entry): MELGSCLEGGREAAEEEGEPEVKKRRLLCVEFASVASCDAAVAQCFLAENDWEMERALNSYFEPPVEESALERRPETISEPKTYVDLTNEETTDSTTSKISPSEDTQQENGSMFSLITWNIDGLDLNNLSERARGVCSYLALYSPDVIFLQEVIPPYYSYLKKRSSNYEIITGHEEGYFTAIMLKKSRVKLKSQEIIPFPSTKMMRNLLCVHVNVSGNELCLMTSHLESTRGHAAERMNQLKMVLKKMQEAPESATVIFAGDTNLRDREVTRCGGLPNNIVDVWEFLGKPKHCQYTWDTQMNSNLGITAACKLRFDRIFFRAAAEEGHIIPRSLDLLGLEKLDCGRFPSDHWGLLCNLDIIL

[6] = target: T8, Carboxy-terminal domain RNA polymerase II polypeptide A small phosphatase 1 (Homo sapiens, UniProt Q9GZU7); assay: CTDSP1 inhibitors, concentration-response, biochemical, absorbance readout, ultra-high-throughput screen actives (AID 540297); type: functional
T8 sequence (Q9GZU7 whole entry): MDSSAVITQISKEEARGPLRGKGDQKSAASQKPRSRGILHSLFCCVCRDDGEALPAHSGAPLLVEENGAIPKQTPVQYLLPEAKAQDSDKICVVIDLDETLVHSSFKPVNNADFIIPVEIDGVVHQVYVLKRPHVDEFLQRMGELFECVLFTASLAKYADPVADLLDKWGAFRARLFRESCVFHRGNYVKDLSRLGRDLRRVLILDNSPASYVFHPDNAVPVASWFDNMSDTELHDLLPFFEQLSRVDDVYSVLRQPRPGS

[7] = target: T9, Small ubiquitin-related modifier 1 (Homo sapiens, UniProt P63165); assay: SUMO1 protein interaction blockers, potency – biochemical, fluorescence polarization, uHTS hits, dose response (AID 624382); type: functional; settings: read-out: IC50_Mean
[8] = target: T9, Small ubiquitin-related modifier 1; assay: SUMO1 protein-protein binding blockers, potency – biochemical, FRET, dose response (AID 624383); type: functional; settings: read-out: IC50_Mean
[9] = target: T10, Methionyl-tRNA synthetase, putative (Trypanosoma brucei brucei, UniProt Q38C91); type: functional, Trypanosoma brucei brucei strain 927/4 GUTat10.1
T10 sequence (Q38C91 whole entry): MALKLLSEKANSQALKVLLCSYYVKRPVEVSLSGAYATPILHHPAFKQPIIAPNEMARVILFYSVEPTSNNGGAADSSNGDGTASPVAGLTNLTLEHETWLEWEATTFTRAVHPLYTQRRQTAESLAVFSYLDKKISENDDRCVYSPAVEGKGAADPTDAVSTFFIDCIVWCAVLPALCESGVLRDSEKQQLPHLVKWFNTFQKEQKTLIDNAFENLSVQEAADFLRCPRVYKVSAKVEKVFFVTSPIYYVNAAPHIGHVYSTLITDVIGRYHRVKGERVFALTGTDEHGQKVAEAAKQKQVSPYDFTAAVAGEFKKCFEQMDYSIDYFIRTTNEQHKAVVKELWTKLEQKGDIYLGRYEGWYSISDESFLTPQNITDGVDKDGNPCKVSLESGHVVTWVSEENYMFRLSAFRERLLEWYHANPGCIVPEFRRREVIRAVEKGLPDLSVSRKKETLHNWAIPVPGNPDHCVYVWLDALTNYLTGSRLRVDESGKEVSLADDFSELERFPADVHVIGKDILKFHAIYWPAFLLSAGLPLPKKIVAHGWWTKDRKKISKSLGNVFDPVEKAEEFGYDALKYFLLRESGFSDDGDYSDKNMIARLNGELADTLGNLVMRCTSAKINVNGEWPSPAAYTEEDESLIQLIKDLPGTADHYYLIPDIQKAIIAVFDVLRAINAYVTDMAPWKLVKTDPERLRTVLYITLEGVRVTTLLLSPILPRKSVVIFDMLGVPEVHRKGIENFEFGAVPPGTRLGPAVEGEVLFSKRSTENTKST

[10] = target: T10, Methionyl-tRNA synthetase, putative; type: functional, Trypanosoma brucei brucei strain 927/4 GUTat10.1; remark: listed apart in the source
[11] = Counterscreen for inhibitors of Trypanosoma brucei methionyl tRNA synthetase (MetRS): Luminescence-based cell-based high throughput dose response assay to identify compounds that are cytotoxic to Jurkat human T lymphocyte cells.; type: functional
Vero = assay: viability loss in Vero cells – cell-based, plate reader, cherry-pick samples, cytotoxicity control, dose response (AID 687020); type: functional; settings: Chlorocebus sabaeus
[12] = target: Nuclear receptor subfamily 5 group A member 2 (Homo sapiens, UniProt O00482); type: functional, cell-based;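 also: HEK293T cells transfected with LRH-1 and a StAR promoter luciferase reporter; potency for inhibitors that lower LRH-1 driven reporter light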
Steroidogenic factor 1 = Steroidogenic factor 1 (Homo sapiens, UniProt Q13285); assay: Counterscreen for inverse agonists of the liver receptor homolog-1 (LRH-1; NR5A2): Luminescence-based cell-based high throughput dose response assay to identify inverse agonists of the Steroidogenic Factor 1 Nuclear Receptor (SF1; NR5A1).; type: functional
[13] = nonselective StAR promoter luciferase inhibitors – cell-based, luminescence, luciferase reporter, counter-screen for LRH-1 inverse agonist project, dose response (AID 651969); type: functional

T9 sequence (P63165 whole entry): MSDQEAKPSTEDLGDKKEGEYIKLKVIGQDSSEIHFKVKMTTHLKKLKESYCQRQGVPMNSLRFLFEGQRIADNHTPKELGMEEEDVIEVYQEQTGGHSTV
Steroidogenic factor 1, sequence (Q13285 whole entry): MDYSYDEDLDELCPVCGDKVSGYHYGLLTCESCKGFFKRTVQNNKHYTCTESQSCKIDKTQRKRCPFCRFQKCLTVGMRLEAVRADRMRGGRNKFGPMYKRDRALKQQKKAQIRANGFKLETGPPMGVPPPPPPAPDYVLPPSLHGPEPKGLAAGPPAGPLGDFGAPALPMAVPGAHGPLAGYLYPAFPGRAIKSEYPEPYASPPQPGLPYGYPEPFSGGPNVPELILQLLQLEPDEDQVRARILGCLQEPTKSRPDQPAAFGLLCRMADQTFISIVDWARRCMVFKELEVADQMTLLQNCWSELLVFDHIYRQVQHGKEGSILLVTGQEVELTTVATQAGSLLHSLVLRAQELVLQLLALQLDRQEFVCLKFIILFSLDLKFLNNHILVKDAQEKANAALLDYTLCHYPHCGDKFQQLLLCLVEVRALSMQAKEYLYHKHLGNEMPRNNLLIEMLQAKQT
Nuclear receptor subfamily 5 group A member 2, sequence (O00482 whole entry): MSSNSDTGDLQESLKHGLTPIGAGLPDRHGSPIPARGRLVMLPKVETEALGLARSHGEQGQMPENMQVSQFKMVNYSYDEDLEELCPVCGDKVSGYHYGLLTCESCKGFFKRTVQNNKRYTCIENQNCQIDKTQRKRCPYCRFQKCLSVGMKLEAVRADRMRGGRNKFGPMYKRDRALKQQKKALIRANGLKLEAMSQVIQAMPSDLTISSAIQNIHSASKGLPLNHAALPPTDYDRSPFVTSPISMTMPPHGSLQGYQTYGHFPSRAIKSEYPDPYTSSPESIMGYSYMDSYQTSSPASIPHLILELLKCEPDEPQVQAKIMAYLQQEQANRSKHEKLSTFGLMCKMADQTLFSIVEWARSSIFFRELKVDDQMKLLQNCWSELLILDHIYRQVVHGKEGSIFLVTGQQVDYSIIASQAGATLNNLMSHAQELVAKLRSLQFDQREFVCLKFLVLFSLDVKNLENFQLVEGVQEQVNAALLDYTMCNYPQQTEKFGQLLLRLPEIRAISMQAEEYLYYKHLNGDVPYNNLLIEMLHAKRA

- IC50 (Caspase-3): 13.7 µM (active)
- IC50 [1]: 8.12 µM (active)
- IC50 [2]: 6.5 µM (active)
- EC50 [4]: 22.9 µM (inactive)
- AC50 (Caspase-6): 8.44 µM (active)
- IC50 [5]: 85.5 µM (inactive)
Structure (SMILES): CC1CCCC(NC(=O)COC(=O)c2ccc([N+](=O)[O-])s2)C1C (centres undefined)
- IC50 [3]: 5.63 µM (active)

Structure (SMILES): COc1ccc(Nc2nnc(-c3ccncc3)s2)cc1Cl
- IC50 [6]: 4.85 µM (active)
- IC50 [7]: > 66.6 µM (inactive)
- IC50 [8]: 6.3 µM (active)

- IC50 [9]: 81.6 µM (inactive)
- IC50 [10]: 30.3 µM (inactive)
Structure (SMILES): O=C(CSc1nc2ncccc2[nH]1)Nc1ccc2c(c1)OCO2

Structure (SMILES): O=C(NCc1nc2ccccc2[nH]1)C1=C[C@H](C2CCCCC2)C[C@H](OCCCCO)O1
- IC50 [9]: 5.64 µM (active)
- IC50 [11]: 28.8 µM (inactive)
- IC50 [10]: 3.14 µM (active)

Structure (SMILES): CCN1CCN(S(=O)(=O)c2ccc(Cl)c(C(=O)N(C)CCOc3ccc(Cl)cc3)c2)CC1
- AC50 (Vero): 21.1 µM (active)

Structure (SMILES): COc1ccc(S(=O)(=O)Nc2ccc3c(c2)n(C)c(=O)n3C)cc1F
- IC50 [12]: 8.04 µM (active)
- IC50 (Steroidogenic factor 1): 9.64 µM (active)
- IC50 [13]: 34.5 µM (inactive)

Structure (SMILES): COc1ccc(N2CCN(c3cc(C(=O)NC4CCCCC4)ncn3)CC2)cc1OC
- AC50 (Vero): 29.7 µM (active)

Structure (SMILES): COCC(=O)NC1CCN(CC(=O)Nc2ccc(OC)cc2[N+](=O)[O-])CC1
- IC50 [12]: 3.9 µM (active)
- IC50 (Steroidogenic factor 1): 1.37 µM (active)
- IC50 [13]: 35.9 µM (inactive)

Structure (SMILES): O=C(CSc1nc2ccc[nH]c-2n1)Nc1ccc2c(c1)OCO2
- IC50 [11]: 83.3 µM (inactive)
